{
  "source": "patent US8377974B2",
  "about": "(Millennium Pharmaceuticals, Inc., priority 2004, dated 2013)",
  "data": [
    {"target": "T1, human plasma protein factor Xa (Homo sapiens, UniProt P00742)", "T1 construct": "measure proteolytic activity of the enzyme (factor Xa); purchased Haematologic Technologies (Essex Junction, Vt.); host or cells: human plasma", "T1 sequence (P00742 235-488 limits assumed)": "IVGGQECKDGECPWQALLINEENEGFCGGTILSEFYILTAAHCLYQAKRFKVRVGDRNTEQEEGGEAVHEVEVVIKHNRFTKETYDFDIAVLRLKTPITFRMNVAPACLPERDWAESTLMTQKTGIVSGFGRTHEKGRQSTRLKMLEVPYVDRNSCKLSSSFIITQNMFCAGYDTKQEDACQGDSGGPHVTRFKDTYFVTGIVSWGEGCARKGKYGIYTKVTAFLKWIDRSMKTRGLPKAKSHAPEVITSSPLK", "T1 sequence (P00742 41-179 partner limits assumed)": "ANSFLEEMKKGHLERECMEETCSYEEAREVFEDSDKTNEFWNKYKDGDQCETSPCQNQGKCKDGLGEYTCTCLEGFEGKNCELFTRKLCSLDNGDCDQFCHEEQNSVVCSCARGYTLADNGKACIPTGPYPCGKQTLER", "experiment": "Factor Xa IC50 determination: cleavage of paranitroanilide substrate S-2765 in 96-well plates", "type": "biochemical", "conditions": "fXa 1 nM, S-2765 100 μM, Tris buffered saline pH 7.4, room temperature", "outline": "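Human plasma factor Xa (1 nM) preincubated 5 min at room temperature with inhibitor (0.01 nM–10 μM final) in Tris-buffered saline pH 7.4 with 5 mM CaCl2, 0.1% BSA, 5% DMSO. S-2765 at 100 μM final; hydrolysis at 405 nm over 2 min. IC50 from 4-parameter fit of initial velocities.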", "units": {"IC50": "µM"}, "values": [
      {"smiles": "COc1ccccc1-c1ccc(C2=NOC(CNC(=O)c3ccc(Cl)s3)C2)cc1", "note": "(stereo not drawn) [Example 188, 5-Chloro-thiophene-2-carboxylic acid [3-(2′-methoxy-biphenyl-4-yl)-4,5-dihydro-isoxazol-5-ylmethyl]-amide]", "IC50": "0.1 to 0.5"},
      {"smiles": "CC1(CNC(=O)c2ccc(Cl)s2)CC(c2ccccc2)=NO1", "note": "(stereo not drawn) [Example 145, 5-Chloro-thiophene-2-carboxylic acid (5-methyl-3-phenyl-4,5-dihydro-isoxazol-5-ylmethyl)-amide]", "IC50": "≥ 0.5"},
      {"smiles": "O=C(NCc1cn(-c2ccc(N3CCCOCC3)nc2)nn1)c1ccc(Cl)s1", "note": "[Example 385, N-((1-(6-(1,4-Oxazepan-4-yl)pyridin-3-yl)-1H-1,2,3-triazol-4-yl)methyl)-5-chlorothiophene-2-carboxamide]", "IC50": "0.1 to 0.5"},
      {"smiles": "CN(C)C(=N)c1ccc(C2=NOC(CNC(=O)c3ccc(Cl)s3)C2)c(N(C)C)c1", "note": "(stereo not drawn) [Example 74, 5-Chloro-thiophene-2-carboxylic acid {3-[2-dimethylamino-4-(N,N-dimethyl-carbamimidoyl)-phenyl]-4,5-dihydro-isoxazol-5-ylmethyl}-amide]", "IC50": "0.1 to 0.5"},
      {"smiles": "CN(C)C(=N)c1ccc(C2=NOC(CNC(=O)c3ccc(Cl)s3)C2)c(OC2CCCCC2)c1", "note": "(stereo not drawn) [Example 115, 5-Chloro-thiophene-2-carboxylic acid {3-[2-cyclohexyloxy-4-(N,N-dimethyl-carbamimidoyl)-phenyl]-4,5-dihydro-isoxazol-5-ylmethyl}-amide]", "IC50": "≤ 0.1"},
      {"smiles": "O=C(NCC1CC(c2ccc(NCc3ccccc3)cc2)=NO1)c1ccc(Cl)s1", "note": "(stereo not drawn) [Example 221, 5-Chloro-thiophene-2-carboxylic acid [3-(4-benzylamino-phenyl)-4,5-dihydro-isoxazol-5-ylmethyl]-amide]", "IC50": "≥ 0.5"},
      {"smiles": "Cc1ccc(C2=NOC(CNC(=O)c3ccc(Cl)s3)C2)cc1", "note": "(stereo not drawn) [Example 147, 5-Chloro-thiophene-2-carboxylic acid (3-p-tolyl-4,5-dihydro-isoxazol-5-ylmethyl)-amide]", "IC50": "≥ 0.5"},
      {"smiles": "COc1ccc(=O)n(-c2ccc(C3=NOC(CNC(=O)c4ccc(Cl)s4)C3)cc2)c1", "note": "(stereo not drawn) [Example 286, 5-Chloro-N-((3-(4-(5-methoxy-2-oxopyridin-1(2H)-yl)phenyl)-4,5-dihydroisoxazol-5-yl)methyl)thiophene-2-carboxamide]", "IC50": "≤ 0.1"},
      {"smiles": "Nc1ccc(C2=NOC(CNC(=O)c3ccc(Cl)s3)C2)cc1", "note": "(stereo not drawn) [Example 160, 5-Chloro-thiophene-2-carboxylic acid [3-(4-amino-phenyl)-4,5-dihydro-isoxazol-5-ylmethyl]-amide]", "IC50": "≥ 0.5"},
      {"smiles": "COc1ccc(C2=NOC(CNC(=O)c3ccc(Cl)s3)C2)cc1", "note": "(stereo not drawn) [Example 150, 5-Chloro-thiophene-2-carboxylic acid [3-(4-methoxy-phenyl)-4,5-dihydro-isoxazol-5-ylmethyl]-amide]", "IC50": "≥ 0.5"},
      {"smiles": "N=C(c1ccc(-c2cncc(CNC(=O)c3ccc(Cl)s3)c2)cc1)N1CCC1", "note": "[Example 371, N-((5-(4-(Azetidin-1-yl(imino)methyl)phenyl)pyridin-3-yl)methyl)-5-chlorothiophene-2-carboxamide]", "IC50": "≤ 0.1"},
      {"smiles": "CN1CCN(Cc2ccccc2-c2ccc(C3=NOC(CNC(=O)c4ccc(Cl)s4)C3)cc2)CC1", "note": "(stereo not drawn) [Example 199, 5-Chloro-thiophene-2-carboxylic acid {3-[2′-(4-methyl-piperazin-1-ylmethyl)-biphenyl-4-yl]-4,5-dihydro-isoxazol-5-ylmethyl}-amide]", "IC50": "≤ 0.1"},
      {"smiles": "O=C(NCC1CC(c2ccc(-n3ccccc3=O)cc2)=NO1)c1ccc(Cl)s1", "note": "(stereo not drawn) [Example 278, 5-Chloro-N-((3-(4-(2-oxopyridin-1(2H)-yl)phenyl)-4,5-dihydroisoxazol-5-yl)methyl)thiophene-2-carboxamide]", "IC50": "≤ 0.1"},
      {"smiles": "CN(C)c1cc(C(=N)N2CCCC2)ccc1-c1cc(CNC(=O)c2ccc(Cl)s2)on1", "note": "[Example 96, 5-Chloro-thiophene-2-carboxylic acid {3-[2-dimethylamino-4-(imino-pyrrolidin-1-yl-methyl)-phenyl]-isoxazol-5-ylmethyl}-amide]", "IC50": "≤ 0.1"},
      {"smiles": "O=C(NCc1cn(-c2ccc(N3CCOCC3=O)cc2F)nn1)c1ccc(Cl)s1", "note": "[Example 306, 5-Chloro-N-((1-(2-fluoro-4-(3-oxomorpholino)phenyl)-1H-1,2,3-triazol-4-yl)methyl)thiophene-2-carboxamide]", "IC50": "≤ 0.1"},
      {"smiles": "O=C(NCc1cn(-c2ccc(N3CCCCC3=O)cc2)nn1)c1ccc(Cl)s1", "note": "[Example 300, 5-Chloro-N-((1-(4-(2-oxopiperidin-1-yl)phenyl)-1H-1,2,3-triazol-4-yl)methyl)thiophene-2-carboxamide]", "IC50": "≤ 0.1"},
      {"smiles": "COc1cc(C(=N)N2CCCCC2)ccc1C1=NOC(CNC(=O)c2ccc(Cl)s2)C1", "note": "(stereo not drawn) [Example 105, 5-Chloro-thiophene-2-carboxylic acid {3-[4-(imino-piperidin-1-yl-methyl)-2-methoxy-phenyl]-4,5-dihydro-isoxazol-5-ylmethyl}-amide]", "IC50": "≤ 0.1"},
      {"smiles": "N=C(c1ccc(-n2cnc(CNC(=O)c3ccc(Cl)s3)c2)cc1)N1CCCC1", "note": "[Example 367, 5-Chloro-N-((1-(4-(imino(pyrrolidin-1-yl)methyl)phenyl)-1H-imidazol-4-yl)methyl)thiophene-2-carboxamide]", "IC50": "≤ 0.1"},
      {"smiles": "CN(C)c1cc(C(=N)N2CCCCC2)ccc1-c1cc(CNC(=O)c2ccc(Cl)s2)on1", "note": "[Example 97, 5-Chloro-thiophene-2-carboxylic acid {3-[2-dimethylamino-4-(imino-piperidin-1-yl-methyl)-phenyl]-isoxazol-5-ylmethyl}-amide]", "IC50": "≤ 0.1"},
      {"smiles": "CN1CCN=C1c1ccc(C2=NOC(C)(CNC(=O)c3ccc(Cl)s3)C2)cc1", "note": "(stereo not drawn) [Example 58, 5-Chloro-thiophene-2-carboxylic acid {5-methyl-3-[4-(1-methyl-4,5-dihydro-1H-imidazol-2-yl)-phenyl]-4,5-dihydro-isoxazol-5-ylmethyl}-amide]", "IC50": "≤ 0.1"},
      {"smiles": "O=C(NCC1CC(c2ccc(Nc3ccnc4cc(C(F)(F)F)ccc34)cc2)=NO1)c1ccc(Cl)s1", "note": "(stereo not drawn) [Example 394, 5-Chloro-N-((3-(4-(7-(trifluoromethyl)quinolin-4-ylamino)phenyl)-4,5-dihydroisoxazol-5-yl)methyl)thiophene-2-carboxamide]", "IC50": "≤ 0.1"},
      {"smiles": "COC(=O)c1ccc(Nc2ccc(C3=NOC(CNC(=O)c4ccc(Cl)s4)C3)cc2)cc1", "note": "(stereo not drawn) [Example 262, 4-[4-(5-{[(5-Chloro-thiophene-2-carbonyl)-amino]-methyl}-4,5-dihydro-isoxazol-3-yl)-phenylamino]-benzoic acid methyl ester]", "IC50": "≥ 0.5"},
      {"smiles": "O=C(NCc1cn(-c2ccc(N3CCCCC3)nc2)nn1)c1ccc(Cl)s1", "note": "[Example 392, 5-Chloro-N-((1-(6-(piperidin-1-yl)pyridin-3-yl)-1H-1,2,3-triazol-4-yl)methyl)thiophene-2-carboxamide]", "IC50": "0.1 to 0.5"},
      {"smiles": "CCOC(=O)C1CCN(C(=N)c2ccc(-c3nc(CNC(=O)c4ccc(Cl)s4)cs3)cc2)CC1", "note": "[Example 354, Ethyl 1-((4-(4-((2-chlorothiophene-5-carboxamido)methyl)thiazol-2-yl)phenyl)(imino)methyl)piperidine-4-carboxylate]", "IC50": "0.1 to 0.5"},
      {"smiles": "COc1ccc(-c2ccc(-c3cc(CNC(=O)c4ccc(Cl)s4)on3)cc2)c(CN2CCCC2)c1", "note": "[Example 218, 5-Chloro-thiophene-2-carboxylic acid [3-(4′-methoxy-2′-pyrrolidin-1-ylmethyl-biphenyl-4-yl)-isoxazol-5-ylmethyl]-amide]", "IC50": "≤ 0.1"},
      {"smiles": "O=C(NCC1CC(c2ccc(-c3ccccc3Cl)cc2)=NO1)c1ccc(Cl)s1", "note": "(stereo not drawn) [Example 184, 5-Chloro-thiophene-2-carboxylic acid [3-(2′-chloro-biphenyl-4-yl)-4,5-dihydro-isoxazol-5-ylmethyl]-amide]", "IC50": "≥ 0.5"},
      {"smiles": "N=C(c1ccccn1)N1CCC(C2=NOC(CNC(=O)c3ccc(Cl)s3)C2)CC1", "note": "(stereo not drawn) [Example 175, 5-Chloro-thiophene-2-carboxylic acid {3-[1-(imino-pyridin-2-yl-methyl)-piperidin-4-yl]-4,5-dihydro-isoxazol-5-ylmethyl}-amide]", "IC50": "≥ 0.5"},
      {"smiles": "CC(C)Oc1cc(C(=N)N2CCCC2)ccc1-c1cc(CNC(=O)c2ccc(Cl)s2)on1", "note": "[Example 128, 5-Chloro-thiophene-2-carboxylic acid {3-[4-(imino-pyrrolidin-1-yl-methyl)-2-isopropoxy-phenyl]-isoxazol-5-ylmethyl}-amide]", "IC50": "≤ 0.1"},
      {"smiles": "N=C(c1ccc(-c2nc(CNC(=O)c3ccc(Cl)s3)co2)cc1)N1CCCCC1", "note": "[Example 341, 5-Chloro-N-((2-(4-(imino(piperidin-1-yl)methyl)phenyl)oxazol-4-yl)methyl)thiophene-2-carboxamide]", "IC50": "≤ 0.1"},
      {"smiles": "O=C(NCc1cn(-c2ccc(-n3ccccc3=O)cc2)nn1)c1ccc(Cl)s1", "note": "[Example 290, 5-Chloro-N-((1-(4-(2-oxopyridin-1(2H)-yl)phenyl)-1H-1,2,3-triazol-4-yl)methyl)thiophene-2-carboxamide]", "IC50": "≤ 0.1"},
      {"smiles": "CN(c1ccncc1)c1ccc(C2=NOC(CNC(=O)c3ccc(Cl)s3)C2)cc1", "note": "(stereo not drawn) [Example 227, 5-Chloro-thiophene-2-carboxylic acid {3-[4-(methyl-pyridin-4-yl-amino)-phenyl]-4,5-dihydro-isoxazol-5-ylmethyl}-amide]", "IC50": "≤ 0.1"},
      {"smiles": "CN(C)Cc1ccc(-c2ccc(-c3cc(CNC(=O)c4ccc(Cl)s4)on3)cc2)cc1", "note": "[Example 213, 5-Chloro-thiophene-2-carboxylic acid [3-(4′-dimethylaminomethyl-biphenyl-4-yl)-isoxazol-5-ylmethyl]-amide]", "IC50": "≥ 0.5"},
      {"smiles": "CC1(CNC(=O)c2ccc(Cl)s2)CC(c2ccc(C(N3CCC3)=[N+]3CCC3)cc2)=NO1", "note": "(stereo not drawn) [Example 63, 5-Chloro-thiophene-2-carboxylic acid {3-[4-(azetidin-1-yl-azetidin-1-ylidene-methyl)-phenyl]-5-methyl-4,5-dihydro-isoxazol-5-ylmethyl}-amide]", "IC50": "≤ 0.1"}
    ]}
  ]
}
